In PubChem BioAssay (NCI) one finds GI50 and TGI data, which are given here for 14 molecules.

Among the test systems are EKVX NSCLC; SK-OV-3 ovarian; SN12C renal; SF-295 CNS; A498 renal; TK-10 renal; CCRF-CEM leukemia; HOP-62 NSCLC; CAKI-1 renal.
Common to all, as to assay: NCI anticancer screen, dose series, 48 h

Molecules are shown by their SMILES.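 Five concentrations, 48 hours, 96-well plates. GI50: concentration for 50% inhibition of growth. TGI marks complete inhibition of growth.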 Where only a bound is given, the exact number is not on record here.

For the molecule `[C-]#[O+].[Cl][Sn]([Cl])[Cl].[Cl][Sn]([Cl])[Cl].[Pt].c1ccc([PH+](c2ccccc2)c2ccccc2)cc1.c1ccc([PH+](c2ccccc2)c2ccccc2)cc1`, the GI50 with EKVX NSCLC was 28 µM; in the test with SK-OV-3 ovarian, 48.2 µM; in the test with SN12C renal, 56.6 µM; in the test with SF-295 CNS, 71.5 µM; in the test with A498 renal, 18.8 µM; with TK-10 renal it was 25.5 µM. Besides, the TGI was more than 100 µM with EKVX NSCLC; more than 100 µM in the test on SK-OV-3 ovarian; more than 100 µM in the test on SN12C renal; more than 100 µM in the test on SF-295 CNS; 50.1 µM in the test on A498 renal; 52.3 µM in the test on TK-10 renal.
Consider `NC(N)=NS(=O)(=O)c1ccc(Nc2c3ccccc3nc3c(C(=O)N4CCN(CCO)CC4)cccc23)cc1`, for which the TGI with EKVX NSCLC, with SK-OV-3 ovarian, in the test with SN12C renal, in the test with SF-295 CNS, in the test on CCRF-CEM leukemia and in the test with HOP-62 NSCLC was more than 100 µM in each case. For the same molecule, the TGI in the test on CAKI-1 renal, in the test on A498 renal and with TK-10 renal was more than 100 µM throughout.
Regarding `O=C(CC(=O)c1ccc([N+](=O)[O-])cc1)C(=O)Nc1nccs1`, the TGI in the test with EKVX NSCLC, in the test on SK-OV-3 ovarian, with SN12C renal, in the test on CCRF-CEM leukemia, with HOP-62 NSCLC and with CAKI-1 renal was more than 100 µM throughout. This molecule came in with a TGI with TK-10 renal of more than 100 µM.
On to `N=CCCN(CCC=N)c1ccc(/C=C2\CN(NC(=O)c3ccc(Cl)cc3)C(c3ccccc3)=N2)cc1`, for which the TGI in the test with EKVX NSCLC, in the test with SK-OV-3 ovarian, with SN12C renal, in the test on SF-295 CNS, in the test on CCRF-CEM leukemia and in the test on HOP-62 NSCLC was more than 100 µM throughout. The TGI with CAKI-1 renal, in the test on A498 renal and in the test with TK-10 renal was more than 100 µM throughout.
`O=C1c2cccc3cc([N+](=O)[O-])cc(c23)C(=O)N1NC1=NCCN1`: the TGI with EKVX NSCLC, in the test on SK-OV-3 ovarian, in the test on SN12C renal, with SF-295 CNS, in the test on CCRF-CEM leukemia and in the test on HOP-62 NSCLC was more than 100 µM throughout. Besides, the TGI in the test on CAKI-1 renal, in the test on A498 renal and with TK-10 renal was more than 100 µM throughout.
`CC(=O)[CH-]C(=O)c1ccccc1.CC(=O)[CH-]C(=O)c1ccccc1.COc1cccc([O-])c1[O-].[Ti+4]`: the GI50 in the test with SK-OV-3 ovarian was 53.9 µM; in the test on SN12C renal, 49.1 µM; in the test with SF-295 CNS it was 70.4 µM; with CCRF-CEM leukemia, 6.42 µM; in the test with HOP-62 NSCLC, 71.4 µM; in the test on CAKI-1 renal it was more than 100 µM. For the same molecule, the GI50 is 72.5 µM in the test with A498 renal and more than 100 µM in the test on TK-10 renal. Besides, the TGI in the test with SK-OV-3 ovarian, with SN12C renal, with SF-295 CNS, in the test on CCRF-CEM leukemia, in the test on HOP-62 NSCLC and in the test on CAKI-1 renal was more than 100 µM each time. The TGI in the test on A498 renal and in the test on TK-10 renal was more than 100 µM each time.
For `CN1C(OCc2ccccc2)c2c(ccc3c2OCO3)C2C=Cc3cc4c(cc3C21)OCO4` (configuration not stated), the TGI in the test on EKVX NSCLC was 2.98 µM; with SK-OV-3 ovarian it was 2.46 µM; in the test on SN12C renal, 2.61 µM; in the test with SF-295 CNS, 2.81 µM; in the test with CCRF-CEM leukemia, 1.05 µM; in the test with HOP-62 NSCLC it was 2.96 µM. Moreover, the TGI stood at 2.2 µM in the test on CAKI-1 renal and 3.3 µM in the test on TK-10 renal.
Turning to `CC1(C)CCC[C@@]2(C)C1C[C@H](O)[C@@]1(C)O[C@@](C)([C@H](O)CO)CCC21` (some centres not stated), the TGI in the test on EKVX NSCLC was more than 100 µM; in the test on SK-OV-3 ovarian, 79.4 µM; with SN12C renal, more than 100 µM; in the test with SF-295 CNS, more than 100 µM; with CCRF-CEM leukemia, more than 100 µM; in the test with HOP-62 NSCLC, more than 100 µM. For the same molecule, the results for the TGI with CAKI-1 renal, in the test on A498 renal and in the test with TK-10 renal were more than 100 µM, 77.1 µM and more than 100 µM, respectively.
On to `CN(C)c1ccc2c(c1)CN1C(=O)c3ccccc3C1=N2`, for which the GI50 in the test on SK-OV-3 ovarian, in the test on SN12C renal, in the test with SF-295 CNS and in the test on TK-10 renal was more than 100 µM each time. For the same molecule, the TGI with SK-OV-3 ovarian, with SN12C renal, with SF-295 CNS and in the test on TK-10 renal was more than 100 µM in each case.
For `COc1ccc(CN2C(=O)C(Cc3cc(OC)c(OC)c(C)c3OC)NC(=O)/C2=C/c2cc(OC)c(OC)c(C)c2OC)cc1` (configuration not stated), the TGI is more than 100 µM with EKVX NSCLC; more than 100 µM in the test on SK-OV-3 ovarian; more than 100 µM in the test on SN12C renal; more than 100 µM in the test with SF-295 CNS; 71.1 µM with CCRF-CEM leukemia; more than 100 µM in the test on HOP-62 NSCLC. The TGI in the test with A498 renal was 97.6 µM; in the test on TK-10 renal it was 83.1 µM.
On to `[N-]=[N+]=Nc1ccc(CCN2CCN(c3cccc(C(F)(F)F)c3)CC2)cc1I`, for which the TGI with EKVX NSCLC, in the test on SK-OV-3 ovarian, with SN12C renal, with SF-295 CNS, in the test on CCRF-CEM leukemia and in the test on CAKI-1 renal was more than 100 µM each time. Besides, the TGI in the test on A498 renal and with TK-10 renal was more than 100 µM each time.
Consider `CC1(C)C(c2ccccc2)=NN(O)c2ccccc21`, for which the TGI in the test with EKVX NSCLC, in the test with SK-OV-3 ovarian, with SF-295 CNS, with CCRF-CEM leukemia, with HOP-62 NSCLC and in the test on CAKI-1 renal was more than 100 µM each time. The TGI with A498 renal and in the test with TK-10 renal was more than 100 µM each time.
`N#CNC(N)=NCCO`: the TGI in the test on EKVX NSCLC, in the test with SK-OV-3 ovarian, with SN12C renal, in the test on SF-295 CNS, in the test on HOP-62 NSCLC and in the test with CAKI-1 renal was more than 100 µM in each case. Further, the TGI in the test with A498 renal and in the test on TK-10 renal was more than 100 µM each time.
Take `C[C@@H](C1CCC2C3C(=CC(=O)[C@@]21C)[C@H](C)[C@]1(CCC(=O)O1)C1OC31)[C@H]1C[C@]2(C)O[C@@](C)(O1)OC2(C)C` (some centres not stated): the TGI in the test on EKVX NSCLC, in the test on SK-OV-3 ovarian, in the test on SN12C renal, with SF-295 CNS, in the test with CCRF-CEM leukemia and with CAKI-1 renal was more than 100 µM throughout. Besides, the TGI with A498 renal and in the test on TK-10 renal was more than 100 µM in each case.
